# Results reported in ChEMBL document CHEMBL3044865, “Herbicidal Activity and Characteristics of Pyraflufen-ethyl for Controlling Broad-leaved Weeds in Cereals” (J Pestic Sci, 2002).
# Activity calls are given as the source filed them. The calls are words filed in the database; no cut-off is given here.
# Experiments:
# Triticum aestivum [1] = assay: Phytotoxicity in Triticum aestivum (wheat) assessed as injury at 10 g/ha post emergence application measured after 21 days after treatment; format: organism-based; settings: in vivo, other, 504 h
# Triticum aestivum [2] = assay: Phytotoxicity in Triticum aestivum (wheat) assessed as injury at 3 g/ha post emergence application measured after 21 days after treatment; format: organism-based; settings: in vivo, other, 504 h
# Viola arvensis [3] = assay: Ratio of compound ED90 to ioxynil ED90 for herbicidal activity against Viola arvensis
# [4] = target: T1, Protoporphyrinogen IX oxidase (Cichorium intybus) (UniProt Q9SPL6); assay: Inhibition of Tripleurospermum maritimum subsp. inodorum protoporphyrinogen oxidase by post-emergence herbicidal activity assay
# T1 sequence (whole entry): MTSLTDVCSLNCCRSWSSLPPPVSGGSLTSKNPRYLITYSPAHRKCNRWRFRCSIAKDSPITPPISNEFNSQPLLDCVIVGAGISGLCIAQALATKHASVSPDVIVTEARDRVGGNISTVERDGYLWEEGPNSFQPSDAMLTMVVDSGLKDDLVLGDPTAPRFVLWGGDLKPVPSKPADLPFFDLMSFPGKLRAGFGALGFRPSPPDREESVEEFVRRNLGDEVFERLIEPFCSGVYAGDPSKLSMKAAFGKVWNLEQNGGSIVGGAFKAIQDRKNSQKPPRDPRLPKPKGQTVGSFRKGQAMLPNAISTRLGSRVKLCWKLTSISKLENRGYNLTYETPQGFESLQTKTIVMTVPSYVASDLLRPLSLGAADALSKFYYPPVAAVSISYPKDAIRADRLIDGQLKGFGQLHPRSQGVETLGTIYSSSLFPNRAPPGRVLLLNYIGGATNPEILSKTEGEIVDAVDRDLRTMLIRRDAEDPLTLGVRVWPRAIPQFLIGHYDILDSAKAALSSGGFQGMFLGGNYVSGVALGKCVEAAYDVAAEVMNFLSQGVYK
# Veronica hederifolia = assay: Herbicidal activity against Veronica hederaefolia assessed as killing at 30 g/ha post emergence application measured after 21 days after treatment; format: functional
# Stellaria media [5] = assay: Herbicidal activity against Stellaria media assessed as killing at 10 g/ha pre emergence application measured after 21 days after treatment; format: functional
# Stellaria media [6] = assay: Herbicidal activity against Stellaria media assessed as killing at 10 g/ha post emergence application measured after 21 days after treatment; format: functional
# Stellaria media [7] = assay: Herbicidal activity against Stellaria media assessed as killing at 0.3 g/ha post emergence application measured after 21 days after treatment; format: functional
# Galium aparine [8] = assay: Herbicidal activity against Galium aparine assessed as killing at 10 g/ha post emergence application measured after 21 days after treatment; format: functional
# Galium aparine [9] = assay: Herbicidal activity against Galium aparine assessed as killing at 3 g/ha post emergence application measured after 21 days after treatment; format: functional
# Galium aparine [10] = assay: Herbicidal activity against Galium aparine assessed as killing at 1 g/ha post emergence application measured after 21 days after treatment; format: functional
# Avena fatua [11] = assay: Herbicidal activity against Avena fatua assessed as killing at 30 g/ha post emergence application measured after 21 days after treatment; format: functional, organism-based
# Avena fatua [12] = assay: Herbicidal activity against Avena fatua assessed as killing at 10 g/ha pre emergence application measured after 21 days after treatment; format: functional, organism-based
# Viola arvensis [13] = assay: Herbicidal activity against Viola arvensis assessed as killing at 3 g/ha post emergence application measured after 21 days after treatment; format: functional
# Hordeum vulgare = assay: Phytotoxicity in Hordeum vulgare (barley) assessed as injury at 3 g/ha post emergence application measured after 21 days after treatment; format: organism-based; settings: in vivo, other, 504 h
# Triticum aestivum [14] = assay: Phytotoxicity in Triticum aestivum (wheat) assessed as injury at 30 g/ha pre emergence application measured after 21 days after treatment; format: organism-based; settings: in vivo, other, 504 h
smiles,measurement,setting,value
CCOC(=O)COc1cc(-c2nn(C)c(OC(F)F)c2Cl)c(F)cc1Cl [PYRAFLUFEN-ETHYL],Activity,Triticum aestivum [1],11%
same,Activity,Triticum aestivum [2],1%
same,Ratio,Viola arvensis [3],10
same,ED90,[4],0.3 gAi/ha
same,Activity,Veronica hederifolia,11%
same,Activity,Stellaria media [5],21%
same,Activity,Stellaria media [6],100%
same,Activity,Stellaria media [7],90%
same,Activity,Galium aparine [8],100%
same,Activity,Galium aparine [9],100%
same,Activity,Galium aparine [10],80%
same,Activity,Avena fatua [11],inactive
same,Activity,Avena fatua [12],inactive
same,Activity,Viola arvensis [13],80%
same,Activity,Hordeum vulgare,1%
same,Activity,Triticum aestivum [14],Non-toxic
